Source: patent US4622328A, “Phenyl-naphthyridines and drugs containing them, particularly anti-ulcer drugs” (priority 1984, dated 1986)
Where two headings read alike, the source gives them in different places.

Assays:
[1] = in vivo; conditions: fasting Sprague Dawley rat, oral route
[2] = test system: oedema (carragenin); assay: Anti-inflammatory activity: inhibition of carragenin oedema of the paw; format: in vivo, male rats of CD (Charles River) strain
Method: Batches of 6 to 12 male rats of CD (Charles River) strain, weighing 120-130 g, receive for food and drink a 9 o/oo solution of sodium chloride and 200 o/oo of glucose 18 hours before the test.
The volume of the paw is measured by plethysmography at regular intervals.
The active dose 50 and its limits are determined from the linear regression. The significance of the results is given by the Student "t" test (*, ** and *** for p<0.05, p<0.01 and […]).

[3] = test system: gastric lesions (ulcers) provoked by ethanol; assay: Anti-ulcer activity: protection of gastric lesions provoked by a necrosing agent (ethanol); format: in vivo, male rats of OFA (Iffa Credo) strain; conditions: for ED50: Rattus norvegicus, po, read-out: AD50 (active dose 50)
Method: (§1) Batches of 10 to 30 male rats of OFA (Iffa Credo) strain, weighing 160-180 g, are placed on a water diet 24 hours before the oral administration of the product studied. Thirty minutes later, a medicamentous ulcer-forming agent or a necrosing agent (for example absolute ethanol) is administered by the oral route at doses which cause in the control animals a maximum gastric ulceration. The stomachs are removed, according to the test, 6 and 1 hr. respectively after the last treatment. The gastric lesions are then assessed macroscopically (dimensioning and measurement of the size of the ulcers).
(§2) They are expressed in the form of % of inhibition of the ulcers. The active dose 50 is determined graphically.

[4] = test system: gastric lesions (ulcers) provoked by nonsteroid antiinflammatory agent; assay: Anti-ulcer activity: protection of gastric lesions provoked by a medicamentous ulcer forming agent (nonsteroid antiinflammatory agent); format: in vivo, male rats of OFA (Iffa Credo) strain; conditions: for ED50: Rattus norvegicus, po, read-out: AD50 (active dose 50)
Method: as §1, §2

[5] = test system: painful reactions (phenylbenzoquinone); assay: Analgesic activity: inhibition of painful reactions (twists and stretches) to phenylbenzoquinone; format: in vivo, male mice of CDl (Charles River) strain; conditions: for DA50 (active dose): VO, linear regression
Method: Batches of 6 to 18 male mice of CDl (Charles River) strain, weighing 18 to 22 g, receive by the intraperitoneal route a water-alcohol 0.02% solution of phenylbenzoquinone 1 hour after treatment by the oral route. The number of painful reactions is counted from the 5th to the 10th minute.
The active dose and its limits are determined from the linear regression.

[6] = test system: total acid secretion; assay: Anti-secretory activity: inhibition of total acid secretion after pyloric ligature; format: in vivo, male rats of OFA (Iffa Credo) strain; conditions: for ED50: Rattus norvegicus, 4 h, read-out: AD50 (active dose 50); for % of inhibition of the total acid secretion: 4 hours
Method: A pyloric ligature is made under ether anaesthesia on batches of 5 male rats of OFA (Iffa Credo) strain weighing 180-200 g. The product studied is administered by the oral or sub-cutaneous route at the time of the ligature. The animals are sacrificed 4 hours later and the acidity of the gastric fluid collected is titered by 0.1N sodium hydroxide to pH 4 and 7.
They are expressed in percentage of inhibition of the total acid secretion. The active dose 50 is determined from the linear regression. The significance is given by the Student "t" test (* and ** for p<0.05 and p<0.01).

[7] = VO, ethanol lesions, determined graphically
[8] = VO, NSAID lesions, determined graphically
[9] = 0.06 mg.kg-1 VO, ethanol lesions
[10] = 0.25 mg.kg-1 VO, ethanol lesions

Row | Structure (SMILES) | LD50 [1] [mg/kg] | % of inhibition of the oedema ([2]; 4 mg.kg-1 VO) [%] | % of inhibition of the oedema ([2]; 16 mg.kg-1 VO) [%] | % of inhibition of the oedema ([2]; 64 mg.kg-1 VO) [%] | % of inhibition of the oedema ([2]; 128 mg.kg-1 VO) [%] | % of inhibition of the oedema ([2]; 256 mg.kg-1 VO) [%] | % of protection of lesions provoked ([3]; 1 mg.kg-1 VO, ethanol lesions) [%] | % of protection of lesions provoked ([3]; 4 mg.kg-1 VO, ethanol lesions) [%] | ED50 [3, 7] [mg/kg] | % of protection of lesions provoked ([4]; 4 mg.kg-1 VO, NSAID lesions) [%] | % of protection of lesions provoked ([4]; 8 mg.kg-1 VO, NSAID lesions) [%] | % of protection of lesions provoked ([4]; 16 mg.kg-1 VO, NSAID lesions) [%] | % of protection of lesions provoked ([4]; 32 mg.kg-1 VO, NSAID lesions) [%] | ED50 [4, 8] [mg/kg] | % of inhibition of the painful reactions ([5]; 16 mg.kg-1 VO) [%] | % of inhibition of the painful reactions ([5]; 32 mg.kg-1 VO) [%] | % of inhibition of the painful reactions ([5]; 64 mg.kg-1 VO) [%] | % of inhibition of the painful reactions ([5]; 128 mg.kg-1 VO) [%] | % of inhibition of the painful reactions ([5]; 256 mg.kg-1 VO) [%] | DA50 (active dose) [5] [mg · kg - 1] | also measured
1 | O=c1ccc2cccnc2n1-c1cccc(C(F)(F)F)c1 [Example 4, 1-(3-trifluoromethylphenyl)1,2-dihydro 2-oxo 1,8-naphthyridine] | > 256 | 14 | 21 | 80 | 70 | 83 | 6 | 87 | 2.2 | 11 | 40 | 68 | 81 | 12 | 6 | 39 | 37 | 79 | 93 | 62.0 | % of protection of lesions provoked ([3]; 2 mg.kg-1 VO, ethanol lesions): 52%
2 | Cc1cc2cccnc2n(-c2ccccc2)c1=O [Example 11, 1-phenyl 1,2-dihydro 2-oxo 3-methyl 1,8-naphthyridine] |  |  |  |  |  |  | 94 | 98 |  |  |  |  |  |  |  |  |  |  |  |  | ED50 ([6]; sc): 0.065 mg/kg; % of inhibition of the total acid secretion ([6]; administered SC, 0.03 mg.kg-1): 37%; % of inhibition of the total acid secretion ([6]; administered SC, 0.06 mg.kg-1): 46%; % of inhibition of the total acid secretion ([6]; administered SC, 0.125 mg.kg-1): 63%; % of inhibition of the total acid secretion ([6]; administered SC, 0.25 mg.kg-1): 76%; % of inhibition of the total acid secretion ([6]; administered SC, 0.5 mg.kg-1): 81%; % of protection of lesions provoked [3, 9]: 86%; % of protection of lesions provoked [3, 10]: 95%; ED50 [3]: < 0.06 mg/kg; % of protection of lesions provoked ([4]; 0.25 mg.kg-1 VO, NSAID lesions): 1%; % of protection of lesions provoked ([4]; 0.5 mg.kg-1 VO, NSAID lesions): 34%; % of protection of lesions provoked ([4]; 1 mg.kg-1 VO, NSAID lesions): 75%; % of protection of lesions provoked ([4]; 2 mg.kg-1 VO, NSAID lesions): 100%; ED50 [4]: 0.67 mg/kg
3 | Cc1cc2cccnc2n(-c2cccc(C(F)(F)F)c2)c1=O [Examples 3 & 10, 1-(3-trifluoromethylphenyl)1,2-dihydro 2-oxo 3-methyl 1,8-naphthyridine] | > 256 | 10 | 31 | 47 | 61 | 64 | 79 |  | 0.37 | 22 | 62 | 87 | 95 | 6.5 | 30 | 26 | 57 | 58 | 73 | 69.4 | ED50 ([2]; Rattus norvegicus, po, VO, linear regression, read-out: AD50 (active dose 50)): 73.3 mg/kg; ED50 ([6]; administered SC, linear regression): 0.72 mg/kg; ED50 ([6]; po, administered VO, linear regression): 0.7 mg/kg; % of inhibition of the total acid secretion ([6]; administered SC, 0.25 mg.kg-1): 4%; % of inhibition of the total acid secretion ([6]; administered SC, 0.5 mg.kg-1): 38%; % of inhibition of the total acid secretion ([6]; administered SC, 1 mg.kg-1): 65%; % of inhibition of the total acid secretion ([6]; administered SC, 2 mg.kg-1): 90%; % of inhibition of the total acid secretion ([6]; administered VO, 0.125 mg.kg-1): 2%; % of inhibition of the total acid secretion ([6]; administered VO, 0.25 mg.kg-1): 18%; % of inhibition of the total acid secretion ([6]; administered VO, 0.5 mg.kg-1): 59%; % of inhibition of the total acid secretion ([6]; administered VO, 1 mg.kg-1): 56%; % of inhibition of the total acid secretion ([6]; administered VO, 2 mg.kg-1): 75%; % of protection of lesions provoked [3, 9]: 0%; % of protection of lesions provoked ([3]; 0.125 mg.kg-1 VO, ethanol lesions): 17%; % of protection of lesions provoked [3, 10]: 42%; % of protection of lesions provoked ([3]; 0.5 mg.kg-1 VO, ethanol lesions): 64%; % of protection of lesions provoked ([4]; 2 mg.kg-1 VO, NSAID lesions): 15%; % of inhibition of the painful reactions ([5]; 8 mg.kg-1 VO): 6%
